Measured values taken from patent publication US20220395500A1, “SMALL MOLECULE ACTIVATORS OF INTERFERON REGULATORY FACTOR 3 AND METHODS OF USE THEREOF” (Neuralexo, Inc., priority 2020, published 2022).

Experiments:
J774-Dual cells = experiment: J774-Dual cytotoxicity; format: cell-based, mouse; conditions: Mouse Reporter Cell Line J774; read-out: J774 cytotox CC50
Summary of the method: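 CC50 derived from 8-point concentration series in mouse J774-Dual reporter cells, with viability read by CellTiter-Glo in the same plate. Run in parallel with EC50 and ISRE:NFκB ratio determination for cross-species confirmation.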

[1] = test system: IP-10 in mBMDMs (wild-type and IRF3 KO); experiment: IP-10 induction in mouse bone marrow derived macrophages (ELISA); format: cell-based; conditions: increasing concentrations, wild-type vs IRF3 knock-out cells
Protocol: IP-10 levels were determined by mouse CXCL10/IP10 ELISA (Invitrogen, Carlsbad, Calif.) and are expressed as pg/ml. Data represents group mean+/−standard deviation.
IP-10 expression was determined by mouse CXCL10/IP10 ELISA (Invitrogen, Carlsbad, Calif.), and is expressed as pg/ml. Data represents group mean+/−standard deviation.
Target specificity of chemical entities corresponding to the ND and NA chemofamiles was examined by determining dose-dependent expression of IP10, a highly inducible, primary response gene that belongs to the C-X-C chemokine superfamily. […] IP-10 expression was monitored by a mouse CXCL10/IP10 ELISA (Invitrogen, Carlsbad, Calif.), and is expressed at FIG. 20 and FIG. 21 as pg/ml.

[2] = test system: cytokines in mBMDMs (wild-type and IRF3 KO); experiment: Cytokine induction in mBMDMs (20-plex ProcartaPlex, Luminex); format: cell-based, mouse; conditions: for cytokine induction in mBMDMs (IL6, MCP3, Rantes, TNFa, MCP1, Mip1b, Mip1a, Gro-alpha) vs vehicle: wild-type and IRF3 KO mBMDMs
Protocol: (§1) Cytokine induction is shown for both wild-type mouse mBMDMs and IRF3 KO mouse mBMDMs. Cytokine expression was measured using a cytokine 20-plex mouse ProcartaPlex kit (Invitrogen, Carlsbad, Calif.) for labeling of multiple cytokines within an individual sample and run on a Luminex (Austin, Tex.) 200 instrument. Data is expressed as pg/ml. Shown are group means+/−SEM; […], **p<0.01, ***p<0.001, ****p<0.0001.
as §1, with “(Invitrogen)” for “(Invitrogen, Carlsbad, Calif.)”, “Luminex” for “Luminex (Austin, Tex.)”
as §1, with “expression” for “expression was”, “(Invitrogen)” for “(Invitrogen, Carlsbad, Calif.)”, “Luminex” for “Luminex (Austin, Tex.)”
Cytokine expression at each of FIGS. 22A-23B was monitored using a cytokine 20-plex mouse ProcartaPlex kit (Invitrogen, Carlsbad, Calif.) for labeling of multiple cytokines within an individual sample and run on a Luminex 200 instrument, and is expressed at FIGS. 22A-23B as pg/ml.

[3] = test system: plasma cytokines IL-6 and MCP1; experiment: Plasma cytokine induction in vivo in mice; set-up: species or system mouse; conditions: WT C57/BL6 mice, 10 mg/kg, i.v.
Protocol: FIG. 27A is a bar graph illustrating the ability of NA-42 to induce plasma cytokine expression in vivo in mice. […] Expression is represented as pg/ml.
FIG. 27B is a bar graph illustrating the ability of ND-13 to induce plasma cytokine expression in vivo in mice. […] Expression is represented as pg/ml.
Plasma cytokine levels were evaluated using a cytokine 20-plex mouse ProcartaPlex kit (Invitrogen) for labeling of multiple cytokines within an individual sample and run on a Luminex 200 instrument.
Select chemical entities corresponding to the NA and ND chemofamilies were examined as to their ability to induce the expression of various cytokines in vivo. […] Shown at FIG. 27A is a representative example showing NA-42 induction of IL-6 (top panel) and MCP1 (bottom panel).

[4] = test system: Chikungunya Virus (CHIKV); experiment: Adjuvant effect on anti-CHIKV total IgG titers (CHIKV VLP prime/boost); format: in vivo, mouse; conditions: C57BL/6 mice, IM prime and boost, 3 weeks post-boost
Protocol: Conditions shown include virus-like particle (VLP) alone, VLP+5 mg/kg ND13, VLP+10 mg/kg ND13, VLP+5 mg/kg NA-42, and VLP+10 mg/kg NA-42. Depicted is Log 10 antibody titer representing anti-CHIKV Total IgG. Individual samples are depicted as filled circles for each condition. Bar graphs represent average geometric mean titers for each treatment cohort+standard deviation.
Select chemical entities corresponding to the NA and ND chemofamilies were examined as to their ability to act as adjuvants to enhance vaccine platforms. FIG. 28 depicts a representative example showing how NA-42 and ND-13 can enhance antibody titers to a Chikungunya Virus (CHIKV) challenge. C57BL/6 mice were primed and boosted IM with 10^6 PFU equivalents of CHIKVLP alone or in the presence of ND13 or NA42; 3 weeks post-boost mice were euthanized and total IgG reactive with CHIKV was measured by ELISA in duplicate. Data presented are average geometric mean titers for each treatment cohort including each animal. Specifically, FIG. 28 depicts various conditions (virus-like particle (VLP), VLP+5 mg/kg ND13, VLP+10 mg/kg ND13, VLP+5 mg/kg NA-42, and VLP+10 mg/kg NA-42) plotted against Log 10 antibody titer representing Anti-CHIKV Total IgG.

| SMILES | CC50 (J774-Dual cells) [µM] | induction of IP-10 in mBMDMs [1] | off-target inflammatory activity in mBMDMs [2] | cytokine induction in mBMDMs (IL6, MCP3, Rantes, TNFa, MCP1, Mip1b, Mip1a, Gro-alpha) vs vehicle [2] | plasma IL-6 and MCP1 expression in vivo [3] | antibody titers to CHIKV (Anti-CHIKV Total IgG) compared to VLP alone ([4]; VLP + 10 mg/kg) | antibody titers to CHIKV (Anti-CHIKV Total IgG) compared to VLP alone ([4]; VLP + 5 mg/kg) |
| --- | --- | --- | --- | --- | --- | --- | --- |
| COc1ccc(C(=O)Nc2cc(-c3nc4ccccc4s3)ccc2C)cc1[N+](=O)[O-] [ND-38] | > 25 |  |  |  |  |  |  |
| COc1ccc(C(=O)Nc2cc(-c3nc4ccccc4s3)ccc2C)cc1[N+](=O)[O-] [ND52, N-[5-(1,3-benzothiazol-2-yl)-2-methylphenyl]-4-methoxy-3-nitrobenzamide] | 101 |  |  |  |  |  |  |
| COc1ccc(C(=O)Nc2cc(-c3nc4cc(C)c(C)cc4o3)ccc2C)cc1[N+](=O)[O-] [ND-13, N-(5-(5,6-dimethylbenzo[d]oxazol-2-yl)-2-methylphenyl)-4-methoxy-3-nitrobenzamide] |  | IRF3 dependent induction | minimal off-target inflammatory activity | IRF3 dependent cytokine induction | robust | robustly enhances |  |
| CCOc1cccc(COc2ccc(C(=O)Nc3ccc(N4CCN(C(=O)c5cccs5)CC4)cc3)cc2)c1 [NA-42, 4-((3-ethoxybenzyl)oxy)-N-(4-(4-(thiophene-2-carbonyl)piperazin-1-yl)phenyl)benzamide] |  | IRF3 dependent induction | minimal off-target inflammatory activity | IRF3 dependent cytokine induction | robust expression | robustly enhances | robustly enhances |
